Source: US4740503A, “Novel 5-fluoro-2'-deoxyuridine derivatives and salts thereof, process for producing the same, and antitumor agents containing the same” (priority 1984, dated 1988)
“And” between values parts separate entries of the source, which are not always exact repeats. Equal values may be shown once.

Key:
Ehrlich carcinoma cells = assay: Antitumor effect in Ehrlich carcinoma-bearing mice (tumor weight ratio to control); type: in vivo, ddY strain mice; details: i.p. once daily for 6 days, tumor weight on day 12 vs saline control
Description: Eight ddY strain mice (male, 5 weeks old, weight: about 25 g) per group were used, and 5×10^6 Ehrlich carcinoma cells were inoculated subcutaneously into the inguinal region of the mice. The test compound dissolved or suspended in a physiological saline solution was intraperitoneally administered to the mice once daily for 6 days from the day after the inoculation. As the control compound, FudR was used. To the control group was administered only the physiological saline solution.

cells = details: FduMP per se; cited from earlier work
thymidylate synthetase = details: in cells, FduMP formed from FudR; cited from earlier work
[1] = cited from earlier work
[2] = in vitro, compared with 5-Fu; cited from earlier work
[3] = in vivo; cited from earlier work
nucleoside phosphorylase = details: cited from earlier work
[4] = Acute toxicity test (single intraperitoneal administration, LD50); details: mouse, in vivo, ip; single i.p. administration, male ddY mice, death judged on 14th day
Description: To ddY mice (male, 5 weeks old, 5 mice per group) was intraperitoneally administered the test compound dissolved or suspended in a physiological saline solution only one time. On the 14th day after the administration, the death of mouse was judged, and the LD50 value was calculated.

Compound	Effect (T/C (%)) (Ehrlich carcinoma cells; 3 μmole/kg/day) [%]	Effect (T/C (%)) (Ehrlich carcinoma cells; 10 μmole/kg/day)	Effect (T/C (%)) (Ehrlich carcinoma cells; 1 μmole/kg/day) [%]	LD50 at 336 h [4] [mg/kg]	other results
5-Fluoro-2'-deoxy-3'-O-palmitoyl-β-uridine-5'-[2-(4-dimethylaminopyridinio)ethyl]phosphate.hydrate [Test compound 4]	22	19%	–	–	–
5-Fluoro-2'-deoxy-5'-O-hexanoyl-β-uridine-3'-(2-trimethylammonioethyl)phosphate.hydrate [Test compound 9]	38	21%	–	–	–
5-Fluoro-2'-deoxy-5'-O-palmitoyl-β-uridine-3'-[2-(1-pyrazolyl)ethyl]phosphate.hydrate [Example 7]	27	–	40	–	–
5-Fluoro-2'-deoxy-5'-O-palmitoyl-β-uridine-3'-[2-(2-hydroxyethyldimethylammonio)ethyl]phosphate.hydrate [Test compound 11]	17	–	38	–	–
5-Fluoro-2'-deoxy-5'-O-palmitoyl-β-uridine-3'-[2-(2H-1,2,4-triazol-1-io)ethyl]phosphate.hydrate [Test compound 10]	66	34%	–	–	–
5-Fluoro-2'-deoxy-5'-O-palmitoyl-β-uridine-3'-{2-[4-(4-methyl)morpholinio]ethyl}phosphate.hydrate [Test compound 12]	10	–	24	–	–
O=c1[nH]c(=O)n([C@H]2C[C@H](O)[C@@H](COP(=O)(O)O)O2)cc1F [FduMP, 5-fluoro-2'-deoxyuridine-5'-monophosphate]	–	–	–	–	uptake by cells (cells): not taken up by cells; thymidylate synthetase inhibition (thymidylate synthetase): inhibits thymidylate synthetase
O=c1[nH]c(=O)n([C@H]2C[C@H](O)[C@@H](CO)O2)cc1F [FudR, 5-fluoro-2'-deoxy-β-uridine]	87	67% and 77%	–	–	clinical toxicity [1]: high toxicity; clinical efficacy ([1]; compared with 5-Fu): only equivalent in efficacy to 5-Fu; Effect (T/C (%)) (Ehrlich carcinoma cells; 30 μmole/kg/day): 42%; cytocidal activity [2]: stronger cytocidal activity than 5-fluorouracil; excretion [3]: rapidly excreted in vivo; metabolism [3]: metabolized to α-fluoro-β-alanine through 5-Fu; persistency [3]: poor in persistency; cleavage by nucleoside phosphorylase (nucleoside phosphorylase): easily cleaved by nucleoside phosphorylase
CCCCCCCCCCCCCCCCCC(=O)O[C@H]1C[C@H](n2cc(F)c(=O)[nH]c2=O)O[C@@H]1COP(=O)([O-])OCC[N+](C)(C)C [Test compound 2]	–	–	–	188	–
CCCCCCCC/C=C\CCCCCCCC(=O)O[C@H]1C[C@H](n2cc(F)c(=O)[nH]c2=O)O[C@@H]1COP(=O)([O-])OCC[N+](C)(C)C [Test compound 3]	–	–	–	200	–
CCCCCCCCCCCCCCCC(=O)OC[C@H]1O[C@@H](n2cc(F)c(=O)[nH]c2=O)C[C@@H]1OP(=O)([O-])OCC[N+](C)(C)C [Test compound 5]	–	–	–	> 200	–
CCCCCCCCCCCCCCCCCC(=O)OC[C@H]1O[C@@H](n2cc(F)c(=O)[nH]c2=O)C[C@@H]1OP(=O)([O-])OCC[N+](C)(C)C [Test compound 6]	–	–	–	200	–
CCCCCCCCCCCC(=O)OC[C@H]1O[C@@H](n2cc(F)c(=O)[nH]c2=O)C[C@@H]1OP(=O)([O-])OCC[N+](C)(C)C [Test compound 7]	–	–	–	> 300	–
CCCCCCCCCCCCCCCC(=O)O[C@H]1C[C@H](n2cc(F)c(=O)[nH]c2=O)O[C@@H]1COP(=O)([O-])OCC[N+](C)(C)C [compound 1]	47	19%	–	208	Effect (T/C (%)) (Ehrlich carcinoma cells; 30 μmole/kg/day): 15%
CCCCCCCCC=CCCCCCCCC(=O)OC[C@H]1O[C@@H](n2cc(F)c(=O)[nH]c2=O)C[C@@H]1OP(=O)([O-])OCC[N+](C)(C)C [compound 8]	28	–	50	300	–
CCCCCC(=O)OC[C@H]1O[C@@H](n2cc(F)c(=O)[nH]c2=O)C[C@@H]1OP(=O)([O-])OCC[N+](C)(C)C [compound 9]	32	–	50	500	–
CCCCCCCCCCCCCCCC(=O)OC[C@H]1O[C@@H](n2cc(F)c(=O)[nH]c2=O)C[C@@H]1OP(=O)([O-])OCC[n+]1cnc[nH]1 [compound 10]	36	18%	42	–	–
CCCCCCCCCCCCCCCC(=O)OC[C@H]1O[C@@H](n2cc(F)c(=O)[nH]c2=O)C[C@@H]1OP(=O)([O-])OCC[N+](C)(C)CCO [compound 11]	44	22%	41	–	–
CCCCCCCCCCCCCCCC(=O)OC[C@H]1O[C@@H](n2cc(F)c(=O)[nH]c2=O)C[C@@H]1OP(=O)([O-])OCC[N+]1(C)CCOCC1 [compound 12]	28	–	46	–	–
